Test results from patent US9695155B2, “Herbicidal substituted pyrimidinyloxy benzene compounds” (E. I. DU PONT DE NEMOURS AND COMPANY, priority 2013, dated 2017).

Assays:
velvetleaf [1] = test: Test A postemergence; format: in vivo, Abutilon theophrasti
Procedure, shortened: (§1)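 Compounds in non-phytotoxic solvent with surfactant applied as soil spray preemergence, or postemergence to plants 2-10 cm at one- to two-leaf stage, in loam/sand. After approximately 10 days in greenhouse, injury rated visually versus untreated controls, 0 (no effect) to 100 (complete control).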

Heteranthera limosa = test: Test B flooded paddy test; format: in vivo; conditions: Flood, 250 g ai/ha; 0 to 100 scale where 0 is no effect and 100 is complete control
Procedure, shortened: (§2)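 Evaluation is visual, against untreated controls, 13 to 15 days after treatment. Before treatment, plants reached the 2-leaf stage; pots were then flooded 3 cm deep, compound was added to the water, and that level was maintained. Ratings run 0 to 100, with 100 meaning complete control.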

wheat [2] = test: Test A preemergence; format: in vivo, Triticum aestivum
Procedure, shortened: as §1

wheat [3] = test: Test A postemergence; format: in vivo, Triticum aestivum
Procedure, shortened: as §1

giant foxtail [4] = test: Test A preemergence; format: in vivo, Setaria faberii
Procedure, shortened: as §1

barnyardgrass [5] = test: Test B flooded paddy test; format: in vivo, Echinochloa crus-galli; conditions: Flood, 250 g ai/ha; 0 to 100 scale where 0 is no effect and 100 is complete control
Procedure, shortened: as §2

large (Lg) crabgrass [6] = test: Test A postemergence; format: in vivo, Digitaria sanguinalis
Procedure, shortened: as §1

morningglory [7] = test: Test A postemergence; format: in vivo, Ipomoea spp.
Procedure, shortened: as §1

corn [8] = test: Test A preemergence; format: in vivo, Zea mays
Procedure, shortened: as §1

rice = test: Test B flooded paddy test; format: in vivo, Oryza sativa; conditions: Flood, 250 g ai/ha; 0 to 100 scale where 0 is no effect and 100 is complete control
Procedure, shortened: as §2

corn [9] = test: Test A postemergence; format: in vivo, Zea mays
Procedure, shortened: as §1

pigweed [10] = test: Test A postemergence; format: in vivo, Amaranthus retroflexus
Procedure, shortened: as §1

velvetleaf [11] = test: Test A preemergence; format: in vivo, Abutilon theophrasti
Procedure, shortened: as §1

morningglory [12] = test: Test A preemergence; format: in vivo, Ipomoea spp.
Procedure, shortened: as §1

pigweed [13] = test: Test A preemergence; format: in vivo, Amaranthus retroflexus
Procedure, shortened: as §1

large (Lg) crabgrass [14] = test: Test A preemergence; format: in vivo, Digitaria sanguinalis
Procedure, shortened: as §1

barnyardgrass [15] = test: Test A preemergence; format: in vivo, Echinochloa crus-galli
Procedure, shortened: as §1

sedge, umbrella = test: Test B flooded paddy test; format: in vivo, Cyperus difformis; conditions: Flood, 250 g ai/ha; 0 to 100 scale where 0 is no effect and 100 is complete control
Procedure, shortened: as §2

barnyardgrass [16] = test: Test A postemergence; format: in vivo, Echinochloa crus-galli
Procedure, shortened: as §1

giant foxtail [17] = test: Test A postemergence; format: in vivo, Setaria faberii
Procedure, shortened: as §1

[18] = 125 g ai/ha, 0 to 100 scale where 0 is no effect and 100 is complete control
[19] = 500 g ai/ha, 0 to 100 scale, 0 no effect, 100 complete control
[20] = 500 g ai/ha, 0 to 100 scale, 0 no effect, 100 complete control, approx. 10 days
[21] = 500 g ai/ha, 0 to 100 scale where 0 is no effect and 100 is complete control

Cc1cccc(Oc2ncc(Cl)cn2)c1-n1cc(Br)cn1 [Compound 44]
Plant response rating, Velvetleaf (velvetleaf [1]; [18]): 100 | Plant response rating, Velvetleaf (velvetleaf [1]; [19]): 100 | Plant response rating, Ducksalad (Heteranthera limosa): 100 | Plant response rating, Wheat (wheat [2]; [18]): 0 | Wheat plant response rating (wheat [2]; [20]): 20 | Plant response rating, Wheat (wheat [3]; [18]): 0 | Plant response rating, Wheat (wheat [3]; [19]): 30 | Plant response rating, Foxtail, Giant (giant foxtail [4]; [18]): 60 | Foxtail, Giant plant response rating (giant foxtail [4]; [20]): 100 | Plant response rating, Barnyardgrass (barnyardgrass [5]): 20 | Plant response rating, Crabgrass, Large (large (Lg) crabgrass [6]; [18]): 80 | Plant response rating, Crabgrass, Large (large (Lg) crabgrass [6]; [19]): 100 | Plant response rating, Morningglory (morningglory [7]; [18]): 20 | Plant response rating, Morningglory (morningglory [7]; [19]): 60 | Plant response rating, Corn (corn [8]; [18]): 0 | Corn plant response rating (corn [8]; [20]): 20 | Plant response rating, Rice (rice): 45 | Plant response rating, Corn (corn [9]; [18]): 20 | Plant response rating, Corn (corn [9]; [19]): 40 | Plant response rating, Pigweed (pigweed [10]; [18]): 70 | Plant response rating, Pigweed (pigweed [10]; [19]): 100 | Plant response rating, Velvetleaf (velvetleaf [11]; [18]): 70 | Velvetleaf plant response rating (velvetleaf [11]; [20]): 100 | Plant response rating, Morningglory (morningglory [12]; [18]): 50 | Morningglory plant response rating (morningglory [12]; [20]): 60 | Plant response rating, Pigweed (pigweed [13]; [18]): 100 | Pigweed plant response rating (pigweed [13]; [20]): 100 | Plant response rating, Crabgrass, Large (large (Lg) crabgrass [14]; [18]): 90 | Crabgrass, Large plant response rating (large (Lg) crabgrass [14]; [20]): 100 | Plant response rating, Barnyardgrass (barnyardgrass [15]; [18]): 50 | Barnyardgrass plant response rating (barnyardgrass [15]; [20]): 100 | Plant response rating, Sedge, Umbrella (sedge, umbrella): 90 | Plant response rating, Barnyardgrass (barnyardgrass [16]; [18]): 30 | Plant response rating, Barnyardgrass (barnyardgrass [16]; [19]): 90 | Plant response rating, Foxtail, Giant (giant foxtail [17]; [18]): 50 | Plant response rating, Foxtail, Giant (giant foxtail [17]; [19]): 90

Clc1cnc(Oc2ccccc2-n2ccc(Br)n2)nc1 [Compound 21]
Plant response rating, Velvetleaf (velvetleaf [1]; [18]): 50 | Plant response rating, Velvetleaf (velvetleaf [1]; [19]): 80 | Plant response rating, Ducksalad (Heteranthera limosa): 40 | Plant response rating, Wheat (wheat [2]; [18]): 0 | Wheat plant response rating (wheat [2]; [20]): 0 | Plant response rating, Wheat (wheat [3]; [18]): 0 | Plant response rating, Wheat (wheat [3]; [19]): 20 | Plant response rating, Foxtail, Giant (giant foxtail [4]; [18]): 70 | Foxtail, Giant plant response rating (giant foxtail [4]; [20]): 100 | Plant response rating, Barnyardgrass (barnyardgrass [5]): 25 | Plant response rating, Crabgrass, Large (large (Lg) crabgrass [6]; [18]): 20 | Plant response rating, Crabgrass, Large (large (Lg) crabgrass [6]; [19]): 50 | Plant response rating, Morningglory (morningglory [7]; [18]): 40 | Plant response rating, Morningglory (morningglory [7]; [19]): 80 | Plant response rating, Corn (corn [8]; [18]): 0 | Corn plant response rating (corn [8]; [20]): 0 | Plant response rating, Rice (rice): 15 | Plant response rating, Corn (corn [9]; [18]): 0 | Plant response rating, Corn (corn [9]; [19]): 30 | Plant response rating, Pigweed (pigweed [10]; [18]): 90 | Plant response rating, Pigweed (pigweed [10]; [19]): 100 | Plant response rating, Velvetleaf (velvetleaf [11]; [18]): 0 | Velvetleaf plant response rating (velvetleaf [11]; [20]): 20 | Plant response rating, Morningglory (morningglory [12]; [18]): 0 | Morningglory plant response rating (morningglory [12]; [20]): 0 | Plant response rating, Pigweed (pigweed [13]; [18]): 90 | Pigweed plant response rating (pigweed [13]; [20]): 100 | Plant response rating, Crabgrass, Large (large (Lg) crabgrass [14]; [18]): 90 | Crabgrass, Large plant response rating (large (Lg) crabgrass [14]; [20]): 100 | Plant response rating, Barnyardgrass (barnyardgrass [15]; [18]): 20 | Barnyardgrass plant response rating (barnyardgrass [15]; [20]): 30 | Plant response rating, Sedge, Umbrella (sedge, umbrella): 70 | Plant response rating, Barnyardgrass (barnyardgrass [16]; [18]): 0 | Plant response rating, Barnyardgrass (barnyardgrass [16]; [19]): 40 | Plant response rating, Foxtail, Giant (giant foxtail [17]; [18]): 30 | Plant response rating, Foxtail, Giant (giant foxtail [17]; [19]): 90

COc1cnn(-c2ccccc2Oc2ncc(Cl)cn2)c1 [Compound 186]
Velvetleaf plant response rating (velvetleaf [1]; [18]): 80 | Plant response rating, Velvetleaf (velvetleaf [1]; [21]): 90 | Plant response rating, Ducksalad (Heteranthera limosa): 0 | Wheat plant response rating (0 to 100 scale) (wheat [2]; 125 g ai/ha): 0 | Wheat plant response rating (wheat [2]; [21]): 20 | Wheat plant response rating (wheat [3]; [18]): 0 | Plant response rating, Wheat (wheat [3]; [21]): 60 | Foxtail, Giant plant response rating (0 to 100 scale) (giant foxtail [4]; 125 g ai/ha): 80 | Foxtail, Giant plant response rating (giant foxtail [4]; [21]): 100 | Plant response rating, Barnyardgrass (barnyardgrass [5]): 0 | Crabgrass, Large plant response rating (large (Lg) crabgrass [6]; [18]): 40 | Plant response rating, Crabgrass, Large (large (Lg) crabgrass [6]; [21]): 70 | Morningglory plant response rating (morningglory [7]; [18]): 60 | Plant response rating, Morningglory (morningglory [7]; [21]): 100 | Corn plant response rating (0 to 100 scale) (corn [8]; 125 g ai/ha): 0 | Corn plant response rating (corn [8]; [21]): 0 | Plant response rating, Rice (rice): 0 | Corn plant response rating (corn [9]; [18]): 0 | Plant response rating, Corn (corn [9]; [21]): 30 | Pigweed plant response rating (pigweed [10]; [18]): 100 | Plant response rating, Pigweed (pigweed [10]; [21]): 100 | Velvetleaf plant response rating (0 to 100 scale) (velvetleaf [11]; 125 g ai/ha): 70 | Velvetleaf plant response rating (velvetleaf [11]; [21]): 100 | Morningglory plant response rating (0 to 100 scale) (morningglory [12]; 125 g ai/ha): 0 | Morningglory plant response rating (morningglory [12]; [21]): 20 | Pigweed plant response rating (0 to 100 scale) (pigweed [13]; 125 g ai/ha): 100 | Pigweed plant response rating (pigweed [13]; [21]): 100 | Crabgrass, Large plant response rating (0 to 100 scale) (large (Lg) crabgrass [14]; 125 g ai/ha): 100 | Crabgrass, Large plant response rating (large (Lg) crabgrass [14]; [21]): 100 | Barnyardgrass plant response rating (0 to 100 scale, 0 is no effect, 100 is complete control) (barnyardgrass [15]; 125 g ai/ha): 30 | Barnyardgrass plant response rating (barnyardgrass [15]; [21]): 100 | Plant response rating, Sedge, Umbrella (sedge, umbrella): 0 | Barnyardgrass plant response rating (barnyardgrass [16]; [18]): 20 | Plant response rating, Barnyardgrass (barnyardgrass [16]; [21]): 70 | Foxtail, Giant plant response rating (giant foxtail [17]; [18]): 20 | Plant response rating, Foxtail, Giant (giant foxtail [17]; [21]): 80

Cc1cnc(Oc2ccccc2-n2cc(Cl)cn2)nc1 [Compound 15]
Plant response rating, Velvetleaf (velvetleaf [1]; [18]): 90 | Plant response rating, Velvetleaf (velvetleaf [1]; [19]): 100 | Plant response rating, Ducksalad (Heteranthera limosa): 75 | Wheat plant response rating (wheat [2]; [18]): 0 | Wheat plant response rating (wheat [2]; [20]): 0 | Plant response rating, Wheat (wheat [3]; [18]): 0 | Plant response rating, Wheat (wheat [3]; [19]): 10 | Foxtail, Giant plant response rating (giant foxtail [4]; [18]): 30 | Foxtail, Giant plant response rating (giant foxtail [4]; [20]): 100 | Plant response rating, Barnyardgrass (barnyardgrass [5]): 20 | Plant response rating, Crabgrass, Large (large (Lg) crabgrass [6]; [18]): 10 | Plant response rating, Crabgrass, Large (large (Lg) crabgrass [6]; [19]): 60 | Plant response rating, Morningglory (morningglory [7]; [18]): 10 | Plant response rating, Morningglory (morningglory [7]; [19]): 20 | Corn plant response rating (corn [8]; [18]): 0 | Corn plant response rating (corn [8]; [20]): 0 | Plant response rating, Rice (rice): 20 | Plant response rating, Corn (corn [9]; [18]): 0 | Plant response rating, Corn (corn [9]; [19]): 20 | Plant response rating, Pigweed (pigweed [10]; [18]): 70 | Plant response rating, Pigweed (pigweed [10]; [19]): 100 | Velvetleaf plant response rating (velvetleaf [11]; [18]): 60 | Velvetleaf plant response rating (velvetleaf [11]; [20]): 100 | Morningglory plant response rating (morningglory [12]; [18]): 0 | Morningglory plant response rating (morningglory [12]; [20]): 0 | Pigweed plant response rating (pigweed [13]; [18]): 90 | Pigweed plant response rating (pigweed [13]; [20]): 100 | Crabgrass, Large plant response rating (large (Lg) crabgrass [14]; [18]): 40 | Crabgrass, Large plant response rating (large (Lg) crabgrass [14]; [20]): 100 | Barnyardgrass plant response rating (barnyardgrass [15]; [18]): 20 | Barnyardgrass plant response rating (barnyardgrass [15]; [20]): 100 | Plant response rating, Sedge, Umbrella (sedge, umbrella): 85 | Plant response rating, Barnyardgrass (barnyardgrass [16]; [18]): 0 | Plant response rating, Barnyardgrass (barnyardgrass [16]; [19]): 60 | Plant response rating, Foxtail, Giant (giant foxtail [17]; [18]): 10 | Plant response rating, Foxtail, Giant (giant foxtail [17]; [19]): 70
